By pEC50 is commonly meant the EC50 on a negative log10 scale, so that one unit is a factor of ten.

pEC50: −log10 of the molar value.

Sequence of human APJ receptor (P35414 whole entry): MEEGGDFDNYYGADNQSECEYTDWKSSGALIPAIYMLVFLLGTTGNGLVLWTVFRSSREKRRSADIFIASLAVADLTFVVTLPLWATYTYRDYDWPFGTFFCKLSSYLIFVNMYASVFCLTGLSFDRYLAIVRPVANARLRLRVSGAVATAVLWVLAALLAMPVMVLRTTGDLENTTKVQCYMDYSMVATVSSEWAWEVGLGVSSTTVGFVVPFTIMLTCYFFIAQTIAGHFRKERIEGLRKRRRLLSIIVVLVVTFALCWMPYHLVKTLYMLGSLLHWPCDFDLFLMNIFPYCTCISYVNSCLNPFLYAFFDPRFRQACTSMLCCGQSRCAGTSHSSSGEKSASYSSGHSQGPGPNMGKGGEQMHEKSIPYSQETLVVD

This experiment concerns the target human APJ receptor (Homo sapiens (Human), UniProt P35414). Put plainly: biochemical. To be noted: read-out: Activity hAPJ SPA EC50 IP. It counts as biochemical. Put shortly: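 Agonist-stimulated [35S]GTPγS (0.2 nM) binding was read by SPA after 90 min at room temperature. Buffer: 20 mM HEPES pH 7.5 with 5 mM MgCl2, 200 mM NaCl, 3 μM GDP, 0.1% BSA; membranes were from a stable human APJ CHO line. EC50 values are averages of independent runs, fitted by non-linear regression.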
As for `COc1cccc(-c2nnc(NS(=O)(=O)CCc3ccc(F)cc3C#N)n2-c2c(OC)cccc2OC)n1` [Example 200.0, 2-(2-cyano-4-fluorophenyl)-N-(4-(2,6-dimethoxyphenyl)-5-(6-methoxy-2-pyridinyl)-4H-1,2,4-triazol-3-yl)ethanesulfonamide], the pEC50 is 9.24.

Take `COc1cccc(OC)c1-n1c(NS(=O)(=O)CCN2C(=O)N(C)CC[C@@H]2C)nnc1-c1cncc(C)c1` [Example 201.0, N-(4-(2,6-dimethoxyphenyl)-5-(5-methyl-3-pyridinyl)-4H-1,2,4-triazol-3-yl)-2-((6S)-3,6-dimethyl-2-oxotetrahydro-1(2H)-pyrimidinyl)ethanesulfonamide]: the pEC50 was 8.60.

Take `COc1cccc(-c2nnc(NS(=O)(=O)CCc3ccc(F)cc3C#N)n2-c2c(OC)ncnc2OC)n1` [Example 204.0, 2-(2-cyano-4-fluorophenyl)-N-(4-(4,6-dimethoxy-5-pyrimidinyl)-5-(6-methoxy-2-pyridinyl)-4H-1,2,4-triazol-3-yl)ethanesulfonamide]: the pEC50 was 8.82.

For `CCNC(=O)c1cccc(-c2nnc(NS(=O)(=O)[C@@H](C)Cc3ncc(F)cn3)n2-c2c(OC)cccc2OC)n1` [Example 229.0, 6-(4-(2,6-dimethoxyphenyl)-5-((((1S)-2-(5-fluoro-2-pyrimidinyl)-1-methylethyl)sulfonyl)amino)-4H-1,2,4-triazol-3-yl)-N-ethyl-2-pyridinecarboxamide, 6-(4-(2,6-dimethoxyphenyl)-5-((((1R)-2-(5-fluoro-2-pyrimidinyl)-1-methylethyl)sulfonyl)amino)-4H-1,2,4-triazol-3-yl)-N-ethyl-2-pyridinecarboxamide], the pEC50 was 8.20.

In the case of `COc1cccc(OC)c1-n1c(NS(=O)(=O)[C@@H](C)[C@H](OC)c2ncccn2)nnc1-c1cncc(C)c1` [Example 250.0, (1R,2S)-N-(4-(2,6-dimethoxyphenyl)-5-(5-methyl-3-pyridinyl)-4H-1,2,4-triazol-3-yl)-1-methoxy-1-(2-pyrimidinyl)-2-propanesulfonamide], the pEC50 was 8.55.

For the compound `COc1cccc(-c2nnc(NS(=O)(=O)[C@@H](C)[C@H](C)c3ncc(C)cn3)n2-c2c(OC)cccc2OC)n1` [Example 313.0, (2S,3R)—N-(4-(2,6-dimethoxyphenyl)-5-(6-methoxy-2-pyridinyl)-4H-1,2,4-triazol-3-yl)-3-(5-methyl-2-pyrimidinyl)-2-butanesulfonamide], the pEC50 was 9.52.

Turning to `COc1cccc(-c2nnc(NS(=O)(=O)[C@H](C)[C@@H](C)c3ncc(C)cn3)n2-c2c(OC)cccc2OC)n1` [Example 314.0, (2R,3S)—N-(4-(2,6-dimethoxyphenyl)-5-(6-methoxy-2-pyridinyl)-4H-1,2,4-triazol-3-yl)-3-(5-methyl-2-pyrimidinyl)-2-butanesulfonamide], the pEC50 was 8.47.

As to `COc1cccc(OC)c1-n1c(NS(=O)(=O)CCc2ccc(Cl)cc2)nnc1-c1ccccn1` [Example 368.0, 2-(4-chlorophenyl)-N-(4-(2,6-dimethoxyphenyl)-5-(2-pyridinyl)-4H-1,2,4-triazol-3-yl)ethanesulfonamide], the negative-log EC50 (pEC50) was 7.23.

For `COc1cccc(OC)c1-n1c(NS(=O)(=O)CCc2ccc(Cl)cc2)nnc1-c1cccnc1` [Example 369.0, 2-(4-chlorophenyl)-N-(4-(2,6-dimethoxyphenyl)-5-(3-pyridinyl)-4H-1,2,4-triazol-3-yl)ethanesulfonamide], the pEC50 was 7.80.

Turning to `COc1cccc(OC)c1-n1c(NS(=O)(=O)N[C@@H](C)c2ncc(F)cn2)nnc1-c1cncc(C)c1` [Example 392.0], the pEC50 is 7.32.

Consider `CCO[C@H](c1ncc(Cl)cn1)[C@H](C)S(=O)(=O)Nc1nnc(-c2cncc(C)c2)n1-c1c(OC)cccc1OC` [Example 429.0, (1R,2S)-1-(5-chloropyrimidin-2-yl)-N-(4-(2,6-dimethoxyphenyl)-5-(5-methylpyridin-3-yl)-4H-1,2,4-triazol-3-yl)-1-ethoxypropane-2-sulfonamide], for which the pEC50 was 9.57.

As for `COc1cccc(OC)c1-n1c(NS(=O)(=O)[C@@H](C)[C@H](C)c2ncc(F)cn2)nnc1-c1cccc(C)n1` [Example 453.0, (2S,3R)—N-(4-(2,6-dimethoxyphenyl)-5-(6-methyl-2-pyridinyl)-4H-1,2,4-triazol-3-yl)-3-(5-fluoro-2-pyrimidinyl)-2-butanesulfonamide], the pEC50 was 9.22.

In the case of `COc1cccc(OC)c1-n1c(NS(=O)(=O)[C@@H](C)[C@H](C)c2ncc(F)cn2)nnc1-c1cccc(Cl)n1` [Example 454.0, (2S,3R)—N-(5-(6-chloro-2-pyridinyl)-4-(2,6-dimethoxyphenyl)-4H-1,2,4-triazol-3-yl)-3-(5-fluoro-2-pyrimidinyl)-2-butanesulfonamide], the pEC50 is 9.08.

Consider `COc1cccc(OC)c1-n1c(NS(=O)(=O)[C@@H](C)[C@H](C)c2ncc(F)cn2)nnc1-c1cccc(-c2ccccc2)n1` [Example 455.0, (2S,3R)—N-(4-(2,6-dimethoxyphenyl)-5-(6-phenyl-2-pyridinyl)-4H-1,2,4-triazol-3-yl)-3-(5-fluoro-2-pyrimidinyl)-2-butanesulfonamide], for which the pEC50 was 8.31.

With `COc1cccc(OC)c1-n1c(NS(=O)(=O)CCN2C(=O)N(C)CC[C@H]2C)nnc1-c1cncc(C)c1` [Example 460.0, N-(4-(2,6-dimethoxyphenyl)-5-(5-methyl-3-pyridinyl)-4H-1,2,4-triazol-3-yl)-2-((6R)-3,6-dimethyl-2-oxotetrahydro-1(2H)-pyrimidinyl)ethanesulfonamide], the pEC50 was 8.01.

Consider `COc1cccc(OC)c1-n1c(NS(=O)(=O)CCc2ccc(F)cc2C#N)nnc1-c1cccc(=O)[nH]1` [Example 461.0, 2-(2-cyano-4-fluorophenyl)-N-(4-(2,6-dimethoxyphenyl)-5-(6-oxo-1,6-dihydro-2-pyridinyl)-4H-1,2,4-triazol-3-yl)ethanesulfonamide], for which the pEC50 was 6.17.

Take `COc1cccc(OC)c1-n1c(NS(=O)(=O)/C(C)=C(\C)c2ncc(F)cn2)nnc1-c1cncc(C)c1` [Example 504.0, (2E)-N-(4-(2,6-dimethoxyphenyl)-5-(5-methyl-3-pyridinyl)-4H-1,2,4-triazol-3-yl)-3-(5-fluoro-2-pyrimidinyl)-2-butene-2-sulfonamide]: the pEC50 is 7.74.

Take `COc1cccc(-c2nnc(NS(=O)(=O)/C(C)=C(\C)c3ncc(F)cn3)n2-c2c(OC)cccc2OC)n1` [Example 505.0, (2E)-N-(4-(2,6-dimethoxyphenyl)-5-(6-methoxy-2-pyridinyl)-4H-1,2,4-triazol-3-yl)-3-(5-fluoro-2-pyrimidinyl)-2-butene-2-sulfonamide]: the pEC50 was 8.72.

`COc1cccc(OC)c1-n1c(NS(=O)(=O)[C@H](C)[C@@H](C)c2ncc(C)cn2)nnc1-c1cccnc1` [Example 585.0, (2R,3S)—N-(4-(2,6-dimethoxyphenyl)-5-(3-pyridinyl)-4H-1,2,4-triazol-3-yl)-3-(5-methyl-2-pyrimidinyl)-2-butanesulfonamide]: the pEC50 is 7.60.

For the compound `COc1cccc(OC)c1-n1c(NS(=O)(=O)[C@@H](C)[C@H](OC)c2ncc(Cl)cn2)nnc1-c1cccnc1` [Example 591.0, (1R,2S)-1-(5-chloro-2-pyrimidinyl)-N-(4-(2,6-dimethoxyphenyl)-5-(3-pyridinyl)-4H-1,2,4-triazol-3-yl)-1-methoxy-2-propanesulfonamide], the negative logarithm of the EC50 (pEC50) was 9.68.

On to `COc1cccc(OC)c1-n1c(NS(=O)(=O)[C@H](C)[C@@H](OC)c2ncc(Cl)cn2)nnc1-c1cccnc1` [Example 592.0, (1S,2R)-1-(5-chloro-2-pyrimidinyl)-N-(4-(2,6-dimethoxyphenyl)-5-(3-pyridinyl)-4H-1,2,4-triazol-3-yl)-1-methoxy-2-propanesulfonamide], for which the pEC50 was 8.00.

In the case of `CCO[C@H](c1ncc(Cl)cn1)[C@H](C)S(=O)(=O)Nc1nnc(-c2cncc(C)c2)n1-c1c(OC)cccc1OC` [Example 610.0, (1R,2S)-1-(5-chloro-2-pyrimidinyl)-N-(4-(2,6-dimethoxyphenyl)-5-(5-methyl-3-pyridinyl)-4H-1,2,4-triazol-3-yl)-1-ethoxy-2-propanesulfonamide], the pEC50 is 9.52.

Take `COc1cccc(OC)c1-n1c(NS(=O)(=O)[C@H](C)[C@@H](O)c2cnc(C)cn2)nnc1-c1cccnc1` [Example 614.0, (1S,2R)—N-(4-(2,6-dimethoxyphenyl)-5-(3-pyridinyl)-4H-1,2,4-triazol-3-yl)-1-hydroxy-1-(5-methyl-2-pyrazinyl)-2-propanesulfonamide]: the pEC50 was 8.77.

Regarding `COc1cccc(OC)c1-n1c(NS(=O)(=O)[C@@H](C)[C@H](O)c2cnc(C)cn2)nnc1-c1cccnc1` [Example 615.0, (1R,2S)—N-(4-(2,6-dimethoxyphenyl)-5-(3-pyridinyl)-4H-1,2,4-triazol-3-yl)-1-hydroxy-1-(5-methyl-2-pyrazinyl)-2-propanesulfonamide], the pEC50 is 7.19.

`COc1cccc(OC)c1-n1c(NS(=O)(=O)[C@@H](C)[C@H](O)c2ncc(C)cn2)nnc1-c1cccnc1` [Example 616.0, (1R,2S)—N-(4-(2,6-dimethoxyphenyl)-5-(pyridin-3-yl)-4H-1,2,4-triazol-3-yl)-1-hydroxy-1-(5-methylpyrimidin-2-yl)propane-2-sulfonamide]: the pEC50 was 9.34.

On to `COc1cccc(OC)c1-n1c(NS(=O)(=O)CCc2ccc(F)cc2C#N)nnc1-c1cncc(C)c1` [Example 621.0, 2-(2-cyano-4-fluorophenyl)-N-(4-(2,6-dimethoxyphenyl)-5-(5-methyl-3-pyridinyl)-4H-1,2,4-triazol-3-yl)ethanesulfonamide], for which the pEC50 is 9.08.

`COc1ncnc(OC)c1-n1c(NS(=O)(=O)[C@@H](C)[C@H](OC)c2ncc(C)cn2)nnc1-c1ccccn1` [Example 628.0, (1R,2S)-N-(4-(4,6-dimethoxy-5-pyrimidinyl)-5-(2-pyridinyl)-4H-1,2,4-triazol-3-yl)-1-methoxy-1-(5-methyl-2-pyrimidinyl)-2-propanesulfonamide]: the pEC50 is 8.19.

For the origin of these results see US10058550B2, “Methods of treating heart failure” (priority 2015, dated 2018).
